{"source": "patent US10937641B2", "about": "“MALDI mass spectrometry method” (BiosparQ B.V., priority 2017, dated 2021)", "origin": "cited, not measured here", "details": "solubility defined at room temperature as intrinsic solubility", "data": [{"compound": "N#CC(=Cc1ccc(O)cc1)C(=O)O", "note": "[αCHCA, α-cyano-4-hydroxycinnamic acid]", "values": [{"measurement": "solubility in water", "result": 6000, "unit": "µg/mL"}]}]}
